Results as given in publication PMC12449377, “Psychedelic-like effects induced by 2,5-dimethoxy-4-iodoamphetamine, lysergic acid diethylamide, and psilocybin in male and female C57BL/6J mice” (Psychopharmacology, 2025).
Read-outs that look alike come from different tables or passages of the source.

Legend:
[1] = target: T1, 5-HT2A (Mus musculus, UniProt P35363); assay: Competition binding vs [3H]M100907 in mouse brain membranes
T1 construct: tissue BioIVT; host or cells: whole C57BL/6 mouse brain minus cerebellum, male and female
T1 sequence (P35363 whole entry): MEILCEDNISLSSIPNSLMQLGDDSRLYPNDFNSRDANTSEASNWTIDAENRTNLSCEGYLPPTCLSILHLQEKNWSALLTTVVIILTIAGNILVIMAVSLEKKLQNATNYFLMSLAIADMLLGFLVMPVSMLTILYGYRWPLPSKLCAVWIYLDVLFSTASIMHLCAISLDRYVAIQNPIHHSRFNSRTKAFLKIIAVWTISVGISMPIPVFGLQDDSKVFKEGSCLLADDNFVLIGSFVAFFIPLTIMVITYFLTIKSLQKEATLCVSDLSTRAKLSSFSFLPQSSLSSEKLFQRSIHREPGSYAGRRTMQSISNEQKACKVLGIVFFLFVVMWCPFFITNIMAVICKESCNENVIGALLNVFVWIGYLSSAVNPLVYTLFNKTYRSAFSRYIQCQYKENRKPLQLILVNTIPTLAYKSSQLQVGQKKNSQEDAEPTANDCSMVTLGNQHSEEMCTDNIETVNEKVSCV
Description: (§1) Competition binding studies were conducted in mouse brain tissue as previously described (Glatfelter et al. [2022b]). Briefly, the experiments utilized membranes prepared from whole C57BL/6 mouse brain minus cerebellum (BioIVT, Westbury, NY, USA). […] We assessed the ability of test drugs to compete for [^3H]M100907 binding at 5-HT2A (1 nM) or [^3H]8-OH-DPAT binding at 5-HT1A (0.5 nM). Radioligands were purchased commercially (PerkinElmer, Boston, MA, USA). Nonspecific binding was determined using 10 µM ketanserin for 5-HT2A and serotonin for 5-HT1A. All data represent 3 experiments performed in triplicate.
(§2) Concentration-response data were fit to a single site non-linear regression model. For the HTR studies, potencies were determined from the ascending limb of the dose-response curves using ED50 potency values from [agonist] vs. response (variable slope, four parameter) least squares fit non-linear regression analyses, whereas efficacy was defined by the top output parameter or Emax from the aforementioned analyses. […] Best-fit values for ED50 and Emax from non-linear regression analyses were compared by extra sum-of-squares F tests. Mean effects for each behavioral endpoint were compared using two-way ANOVA (dose x sex), followed by Sidak’s multiple comparisons post-hoc test. Mean effects for pooled mouse behavioral data were compared via Welch’s ANOVA with Dunnett’s T3 post-hoc test, comparing all doses to saline vehicle controls (0 mg/kg). Alpha was set to 0.05 for all analyses.

[2] = target: T2, 5-HT1A (Mus musculus, UniProt Q64264); assay: Competition binding vs [3H]8-OH-DPAT in mouse brain membranes
T2 construct: tissue BioIVT; host or cells: whole C57BL/6 mouse brain minus cerebellum, male and female
T2 sequence (Q64264 1-421): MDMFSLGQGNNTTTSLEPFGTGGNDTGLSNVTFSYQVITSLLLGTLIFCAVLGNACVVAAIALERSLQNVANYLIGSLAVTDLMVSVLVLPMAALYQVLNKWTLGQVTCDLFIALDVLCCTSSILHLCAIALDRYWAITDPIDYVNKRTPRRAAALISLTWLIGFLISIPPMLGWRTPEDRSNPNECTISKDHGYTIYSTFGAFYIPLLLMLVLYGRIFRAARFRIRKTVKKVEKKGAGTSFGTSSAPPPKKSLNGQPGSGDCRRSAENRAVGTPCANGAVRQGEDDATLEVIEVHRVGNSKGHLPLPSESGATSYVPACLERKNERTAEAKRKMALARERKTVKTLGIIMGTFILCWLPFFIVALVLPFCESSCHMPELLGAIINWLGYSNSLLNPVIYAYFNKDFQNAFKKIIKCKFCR
Description: as §1, §2

[3] = test system: C57BL/6J mice; assay: Head twitch response (HTR) in mice; type: in vivo, mouse; conditions: for HTR (total events) Mean: 30 min; for ED50: Mus musculus, sc
Description: Each drug was tested using groups of 12 mice per sex (i.e., 24 total mice per drug). Experimental sessions were conducted once every 1–2 weeks for 2 months per drug. Experimental sessions were spaced apart by at least 1 week to minimize the potential for tolerance to drug effects (Canal and Morgan [2012]; Darmani et al. [1990a]; de la Fuente Revenga et al. [2022]). Experiments were conducted during the light phase (1300–1700 local time; lights on = 0700 in a 12/12 light/dark cycle).
(§3) At 1–2 weeks prior to the beginning of experiments, mice were habituated to handling and receiving s.c. saline injections. On the day of an experiment, mice were acclimated to the testing room in their home cage for at least 30 min prior to the start of sessions. Prior to each session, mice were weighed, and resting body temperatures were recorded. Mice were then placed into experimental chambers for acclimation. Behavioral testing was carried out in TruScan mouse locomotor arenas equipped with photobeam arrays (Coulbourn Instruments, Holliston, MA, USA) that were modified with cylindrical inserts and transparent flooring to aid in semi-automated HTR detection as previously described (Glatfelter et al. [2022a]). After 5 min of acclimation, basal body temperature was recorded followed by s.c. injection of drug or vehicle, and mice were returned to test chambers for 30 min. Dose ranges for each drug were 0.03–10 mg/kg for DOI, 0.03–10 mg/kg for psilocybin, and 0.003–1 mg/kg for LSD. Mice were randomly assigned to specific doses at the beginning of the experiment and received different doses at each session.
(§4) During each session, locomotor activity was quantified via photobeam tracking of distance traveled in cm. Overhead GoPro Hero Black 7 video recordings (120 fps, 960p resolution) were analyzed using a commercially available software package from Clever Sys Inc. (Reston, VA, USA) for the measurement of HTR activity. Mouse body temperature was also collected post-session to calculate temperature change values (basal - post session temperature reading).
as §2

[4] = test system: C57BL/6J mice; assay: Body temperature change in mice; type: in vivo, mouse; conditions: for Body Temp Δ (°C) Mean: post 30 min session
Description: All mice were injected s.c. with temperature transponders (14 × 2 mm, model IPTT-300, Avidity Science, Waterford Wisconsin, USA) under brief isoflurane immobilization, and were given at least 1 week to recover (Glatfelter et al. [2022b]). Mice were single housed post-implant, and for the duration of the experiments, to protect their devices from being removed by cage mates. Temperature was measured noninvasively using a handheld reader which is sensitive to the transponder signals.
as §3, §4, §2

[5] = male and female mouse brain membranes, summary statement

## COc1cc(CC(C)N)c(OC)cc1I (stereo not drawn) [DOI, 2,5-dimethoxy-4-iodoamphetamine]
[1]; [3H]M100907 Binding ♀ m5-HT2A Ki, female mouse brain membranes
  Ki: 0.011 µM
[1]; [3H]M100907 Binding ♂ m5-HT2A Ki, male mouse brain membranes
  Ki: 0.013 µM
[1]; [5]
  5-HT2A binding affinity (Ki), males and females: low nanomolar affinity
[2]; [3H]8-OH-DPAT Binding ♀ m5-HT1A Ki, female mouse brain membranes
  Ki: 2.65 µM
[2]; [3H]8-OH-DPAT Binding ♂ m5-HT1A Ki, male mouse brain membranes
  Ki: 2.87 µM
[2]; [5]
  5-HT1A binding affinity (Ki), males and females: µM affinity
[3]; 0.03 mg/kg s.c., female mice
  HTR (total events) Mean: 12.5 total events
[3]; 0.03 mg/kg s.c., male mice
  HTR (total events) Mean: 8.8 total events
[3]; 0.03 mg/kg s.c., pooled sexes
  HTR (total events) Mean: 10.7 total events
[3]; 0.1 mg/kg s.c., female mice
  HTR (total events) Mean: 19.7 total events
[3]; 0.1 mg/kg s.c., male mice
  HTR (total events) Mean: 22.4 total events
[3]; 0.1 mg/kg s.c., pooled sexes
  HTR (total events) Mean: 20.8 total events
[3]; 0.3 mg/kg s.c., female mice
  HTR (total events) Mean: 59.0 total events
[3]; 0.3 mg/kg s.c., male mice
  HTR (total events) Mean: 57.3 total events
[3]; 0.3 mg/kg s.c., pooled sexes
  HTR (total events) Mean: 58.2 total events
[3]; 1 mg/kg s.c., female mice
  HTR (total events) Mean: 91.2 total events
[3]; 1 mg/kg s.c., male mice
  HTR (total events) Mean: 89.7 total events
[3]; 1 mg/kg s.c., pooled sexes
  HTR (total events) Mean: 90.4 total events
[3]; 3 mg/kg s.c., female mice
  HTR (total events) Mean: 108.8 total events
[3]; 3 mg/kg s.c., male mice
  HTR (total events) Mean: 106.8 total events
[3]; 3 mg/kg s.c., pooled sexes
  HTR (total events) Mean: 107.8 total events
[3]; 10 mg/kg s.c., female mice
  HTR (total events) Mean: 148.7 total events
[3]; 10 mg/kg s.c., male mice
  HTR (total events) Mean: 103.3 total events
[3]; 10 mg/kg s.c., pooled sexes
  HTR (total events) Mean: 126.0 total events
[3]; female mice, ascending limb of dose-response curve, read-out: HTR ♀ ED50 (95% CI)
  ED50: 0.52 mg/kg
[3]; male mice, ascending limb of dose-response curve, read-out: HTR ♂ ED50 (95% CI)
  ED50: 0.3 mg/kg
[3]; pooled male and female mice, read-out: HTR ♂+♀ ED50 (95% CI)
  ED50: 0.33 mg/kg
[3]; peak/active doses, 30 min session
  Duration of HTR effect in the session: lasted throughout the entire 30 min session
[3]; s.c., both sexes, 30 min session
  Time of peak effects on HTR post drug administration: 5 to 10 min
[3]; s.c., female mice, top of regression fit
  HTR ♀ Emax (95% CI): 131 (118–146) HTR events
[3]; s.c., male mice, top of regression fit
  HTR ♂ Emax (95% CI): 105 (93–118) HTR events
[3]; s.c., pooled male and female mice
  HTR ♂+♀ Emax (95% CI): 111 (101–127) HTR events
[4]; 0.03 mg/kg s.c., female mice
  Body Temp Δ (°C) Mean: 0.0 °C
[4]; 0.03 mg/kg s.c., male mice
  Body Temp Δ (°C) Mean: 0.2 °C
[4]; 0.03 mg/kg s.c., pooled sexes
  Body Temp Δ (°C) Mean: 0.1 °C
[4]; 0.1 mg/kg s.c., female mice
  Body Temp Δ (°C) Mean: 0.2 °C
[4]; 0.1 mg/kg s.c., male mice
  Body Temp Δ (°C) Mean: 0.3 °C
[4]; 0.1 mg/kg s.c., pooled sexes
  Body Temp Δ (°C) Mean: -0.1 °C
[4]; 0.3 mg/kg s.c., female mice
  Body Temp Δ (°C) Mean: 0.2 °C
[4]; 0.3 mg/kg s.c., male mice
  Body Temp Δ (°C) Mean: 0.6 °C
[4]; 0.3 mg/kg s.c., pooled sexes
  Body Temp Δ (°C) Mean: 0.2 °C
[4]; 1 mg/kg s.c., female mice
  Body Temp Δ (°C) Mean: -0.3 °C
[4]; 1 mg/kg s.c., male mice
  Body Temp Δ (°C) Mean: -0.1 °C
[4]; 1 mg/kg s.c., pooled sexes
  Body Temp Δ (°C) Mean: 0.4 °C
[4]; 3 mg/kg s.c., female mice
  Body Temp Δ (°C) Mean: -0.3 °C
[4]; 3 mg/kg s.c., male mice
  Body Temp Δ (°C) Mean: -0.1 °C
[4]; 3 mg/kg s.c., pooled sexes
  Body Temp Δ (°C) Mean: -0.2 °C
[4]; 10 mg/kg s.c., female mice
  Body Temp Δ (°C) Mean: -0.4 °C
[4]; 10 mg/kg s.c., male mice
  Body Temp Δ (°C) Mean: -0.9 °C
[4]; 10 mg/kg s.c., pooled sexes
  Body Temp Δ (°C) Mean: -0.6 °C
[4]; 0.03-10 mg/kg s.c., both sexes
  Body temperature vs. vehicle controls: did not change body temperature
